Data set [1] can be described thus: Cytotoxicity against human HL-7702 cells assessed as viable cells at 10 uM measured after 24 hrs by MTT assay. The class given is toxicity, cell-based. To be noted: l02, 24 h. In general terms: Tetrazolium assays rely on reduction of a dye to a coloured formazan, in cell work by metabolically active cells.
The test system of data set [2] is RAW264.7. Description: Anti-inflammatory activity in mouse RAW264.7 cells assessed as inhibition of LPS-induced TNF-alpha expression at […] pretreated for 30 mins followed by LPS challenge measured after 24 hrs by ELISA method. The class given is functional, cell-based. In general terms: An ELISA detects its analyte on a solid surface through an enzyme-linked reagent.

For data set [3], the system named is RAW264.7. Description: Anti-inflammatory activity in mouse RAW264.7 cells assessed as inhibition of LPS-induced IL-6 expression at […] pretreated for 30 mins followed by LPS challenge measured after 24 hrs by ELISA method. The class given is functional, cell-based.
The nature of data set [4]: Chemical stability of the compound in phosphate buffer at pH 7.4 at 20 uM measured every 5 mins for 25 mins by UV-visible absorption spectra analysis. The class given is physicochemical. To be noted: pH 7.4, 25 min.
In data set [5] the test system is RAW264.7. Description: Anti-inflammatory activity in mouse RAW264.7 cells assessed as inhibition of LPS-induced IL-6 expression pretreated for 30 mins followed by LPS challenge measured after 24 hrs by ELISA method. The class given is functional, cell-based.
The subject of data set [6] is Mus musculus. As to the kind of experiment: Anti-inflammatory activity in LPS-induced C57BL/6 mouse acute lung injury model assessed as reduction in lung wet/dry ratio at 5 mg/kg, ig pretreated for 7 days followed LPS challenge measured after 6 hrs. The format is functional, organism-based.
Data set [7] has as its system Mus musculus. As to the kind of experiment: Anti-inflammatory activity in LPS-induced C57BL/6 mouse acute lung injury model assessed as reduction in total number of cells in bronchoalveolar lavage fluid at 5 mg/kg, ig pretreated for 7 days followed LPS challenge measured after 6 hrs by hemocytometer. The format is functional, organism-based.
In data set [8] the test system is Mus musculus. Description: Anti-inflammatory activity in LPS-induced C57BL/6 mouse acute lung injury model assessed as reduction in total protein concentration at 5 mg/kg, ig pretreated for 7 days followed LPS challenge measured after 6 hrs by BCA protein assay. The class given is functional, organism-based.
Data set [9] concerns Mus musculus. Description: Anti-inflammatory activity in LPS-induced C57BL/6 mouse acute lung injury model assessed as reduction in IL-6 level in bronchoalveolar lavage fluid at 5 mg/kg, ig pretreated for 7 days followed LPS challenge measured after 6 hrs by ELISA method. The class given is functional, organism-based.
The test system of data set [10] is Peritoneal macrophage. Description: Anti-inflammatory activity in mouse peritoneal macrophage assessed as inhibition of LPS-induced TNF-alpha mRNA expression at 10 uM pretreated for 30 mins followed by LPS challenge measured after 6 hrs by q-PCR analysis. The format is functional.
Data set [11] deals with Mus musculus. As to the kind of experiment: Anti-inflammatory activity in LPS-induced C57BL/6 mouse acute lung injury model assessed as reduction in number of neutrophils in bronchoalveolar lavage fluid at 5 mg/kg, ig pretreated for 7 days followed LPS challenge measured after 6 hrs by Wright-Giemsa staining based assay. The format is functional, organism-based.
In data set [12] the test system is Peritoneal macrophage. As to the kind of experiment: Anti-inflammatory activity in mouse peritoneal macrophage assessed as inhibition of LPS-induced IL-12 mRNA expression at 10 uM pretreated for 30 mins followed by LPS challenge measured after 6 hrs by q-PCR analysis. The format is functional.
Data set [13] relates to Mus musculus. Description: Anti-inflammatory activity in LPS-induced C57BL/6 mouse acute lung injury model assessed as reduction in CD68-positive macrophage level in lung tissue at 5 mg/kg, ig pretreated for 7 days followed LPS challenge measured after 6 hrs by […] light microscopy. The class given is functional, organism-based.
Data set [14] has as its system Mus musculus. As to the kind of experiment: Anti-inflammatory activity in LPS-induced C57BL/6 mouse acute lung injury model assessed as reduction in airspace inflammation in lung tissue at 5 mg/kg, ig pretreated for 7 days followed LPS challenge measured after 6 hrs by hematoxylin and eosin staining based light microscopy. The format is functional, organism-based.

Data set [15] concerns Mus musculus. As to the kind of experiment: Anti-inflammatory activity in LPS-induced C57BL/6 mouse acute lung injury model assessed as reduction in TNF-alpha level in serum at 5 mg/kg, ig pretreated for 7 days followed LPS challenge measured after 6 hrs by ELISA method. The class given is functional, organism-based.
Data set [16] concerns Peritoneal macrophage. Description: Anti-inflammatory activity in mouse peritoneal macrophage assessed as inhibition of LPS-induced IL-33 mRNA expression at 10 uM pretreated for 30 mins followed by LPS challenge measured after 6 hrs by q-PCR analysis. The format is functional.
In data set [17] the test system is Mus musculus. Description: Anti-inflammatory activity in LPS-induced C57BL/6 mouse acute lung injury model assessed as reduction in IL-6 level in serum at 5 mg/kg, ig pretreated for 7 days followed LPS challenge measured after 6 hrs by ELISA method. The format is functional, organism-based.
In data set [18] the test system is Peritoneal macrophage. As to the kind of experiment: Anti-inflammatory activity in mouse peritoneal macrophage assessed as inhibition of LPS-induced IL-6 expression at 10 uM pretreated for 30 mins followed by LPS challenge measured after 6 hrs by q-PCR analysis. The format is functional.
Data set [19] deals with Mus musculus. Description: Anti-inflammatory activity in LPS-induced C57BL/6 mouse acute lung injury model assessed as reduction in TNF-alpha level in bronchoalveolar lavage fluid at 5 mg/kg, ig pretreated for 7 days followed LPS challenge measured after 6 hrs by ELISA method. The format is functional, organism-based.

SMILES strings stand for the structures. Calls of active or inactive are those of the source. The rule behind the calls is not given here.

From ChEMBL document CHEMBL3877268, “Development of resveratrol-curcumin hybrids as potential therapeutic agents for inflammatory lung diseases” (Eur J Med Chem, 2017) come the findings set out here.

As to `COc1ccc(/C=C/c2cc(OC)cc(OC)c2/C=C/C(=O)/C=C/c2cc(C(F)(F)F)ccc2C(F)(F)F)cc1`, in data set [1], the Activity result was “Non-Toxic”.
`COc1ccc(/C=C/c2cc(OC)cc(OC)c2/C=C/C(=O)/C=C/c2ccc(N3CCN(C)CC3)cc2)cc1`: in [1], the Activity result is given as “Non-Toxic”.
With `CCOc1ccc(/C=C/C(=O)/C=C/c2c(/C=C/c3ccc(OC)cc3)cc(OC)cc2OC)cc1`, the Activity entry in data set [1] is recorded as “Non-Toxic”.
As to `COc1ccc(/C=C/c2cc(OC)cc(OC)c2/C=C/C(=O)/C=C/c2ccccc2C(F)(F)F)cc1`, the inhibition entry in the data set with RAW264.7 [2] and in the data set with RAW264.7 [3] was “Active” throughout. The Activity entry in data set [1] is “Non-Toxic”.
On to `COc1ccc(/C=C/c2cc(OC)cc(OC)c2/C=C/C(=O)/C=C/c2ccc(C)s2)cc1`, for which the inhibition entry in the data set with RAW264.7 [2] was “Active”. Further, in data set [4], the Stability result is listed as “Unstable”. Further, the Activity result in data set [1] was “Non-Toxic”. Besides, the inhibition result in the data set with RAW264.7 [3] is “Active”. Further, in the data set on RAW264.7 [5], the IC50 worked out at 4.33 µM and the inhibition entry was “Dose-dependent effect”.
On to `COc1ccc(/C=C/c2cc(OC)cc(OC)c2/C=C/C(=O)/C=C/c2ccccc2Br)cc1`, for which the Activity result in [1] is “Non-Toxic”.
`COc1ccc(/C=C/c2cc(OC)cc(OC)c2/C=C/C(=O)/C=C/c2ccc(OCCCN(C)C)cc2)cc1`: the inhibition result in the data set with RAW264.7 [2] and in the data set on RAW264.7 [3] was “Active” in each case. Further, the Stability result in data set [4] is reported as “Stable”. Further, the Activity result in data set [1] is “Non-Toxic”. In the data set with RAW264.7 [5], the IC50 was 2.15 µM. In the data set with RAW264.7 [5], the inhibition entry was “Dose-dependent effect”.
Consider `COc1ccc(/C=C/c2cc(OC)cc(OC)c2/C=C/C(=O)/C=C/c2ccc(OC)cc2OC)cc1`, for which, in the data set on RAW264.7 [2], the inhibition entry is “Active”. The Stability result in data set [4] is “Stable”. In addition, the Activity entry in data set [1] is “Non-Toxic”. In addition, the inhibition result with RAW264.7 [3] is “Active”. Moreover, in the data set on RAW264.7 [5], the 50% inhibitory concentration (IC50) turned out to be 3.03 µM and the inhibition result is “Dose-dependent effect”.
For `COc1ccc(/C=C/c2cc(OC)cc(OC)c2/C=C/C(=O)/C=C/c2ccccc2OC)cc1`, the Activity entry in [1] is “Non-Toxic”.
Consider `COc1ccc(/C=C/c2cc(OC)cc(OC)c2/C=C/C(=O)/C=C/c2cccc3ccccc23)cc1`, for which the Activity entry in data set [1] is “Non-Toxic”.
For `COc1ccc(/C=C/c2cc(OC)cc(OC)c2/C=C/C(=O)/C=C/c2ccc(OC(C)(C)C)cc2)cc1`, in data set [1], the Activity result is listed as “Non-Toxic”.
The same measure, in the same setting: then `COc1ccc(/C=C/c2cc(OC)cc(OC)c2/C=C/C(=O)/C=C/c2ccccc2Cl)cc1`, with “Non-Toxic”.
Consider `COc1ccc(/C=C/c2cc(OC)cc(OC)c2/C=C/C(=O)/C=C/c2ccc(C(F)(F)F)cc2)cc1`, for which the Activity result in [1] is on record as “Non-Toxic”.
As for `C=CCOc1ccc(/C=C/C(=O)/C=C/c2c(/C=C/c3ccc(OC)cc3)cc(OC)cc2OC)cc1`, in [1], the Activity result was “Non-Toxic”.
Consider `COc1ccc(/C=C/c2cc(OC)cc(OC)c2/C=C/C(=O)/C=C/c2ccc(O)c(Br)c2)cc1`, for which the Activity result in [1] was “Non-Toxic”.
Take `Oc1ccc(/C=C/c2cc(O)cc(O)c2)cc1` [RESVERATROL]: in [4], the Stability result is recorded as “Unstable”.
As to `COc1ccc(/C=C/c2cc(OC)cc(OC)c2/C=C/C(=O)/C=C/c2cccc(C(F)(F)F)c2)cc1`, the Activity entry in data set [1] was “Non-Toxic”. Further, the inhibition result in the data set on RAW264.7 [3] is “Active”.
In the same order, the values of `COc1ccc(/C=C/c2cc(OC)cc(OC)c2/C=C/C(=O)/C=C/c2ccc(OC)c(Br)c2)cc1` are “Non-Toxic” and “Active”.
With `COc1ccc(/C=C/c2cc(OC)cc(OC)c2/C=C/C(=O)/C=C/c2ccc(O)c(OC)c2)cc1`, the Activity entry in [1] is “Non-Toxic”.
For the compound `CCN(CC)c1ccc(/C=C/C(=O)/C=C/c2c(/C=C/c3ccc(OC)cc3)cc(OC)cc2OC)cc1`, the Activity entry in data set [1] was “Non-Toxic”. Further, the inhibition entry with RAW264.7 [3] was “Active”.
Take `COc1ccc(/C=C/c2cc(OC)cc(OC)c2/C=C/C(=O)/C=C/c2c(OC)cc(OC)cc2OC)cc1`: the Activity result in data set [1] is “Non-Toxic”. Besides, the inhibition entry in the data set with RAW264.7 [3] was “Active”.
As to `COc1ccc(/C=C/c2cc(OC)cc(OC)c2/C=C/C(=O)/C=C/c2ccc(C(C)(C)C)cc2)cc1`, in data set [1], the Activity entry was “Non-Toxic”.
As for `COc1ccc(/C=C/c2cc(OC)cc(OC)c2/C=C/C(=O)/C=C/c2ccccc2)cc1`, the inhibition result in the data set on RAW264.7 [2] was “Active”. Moreover, in [4], the Stability entry is on record as “Unstable”. Besides, in data set [1], the Activity entry is on record as “Non-Toxic”. For the same compound, the inhibition result in the data set with RAW264.7 [3] was “Active”. In addition, in the data set on RAW264.7 [5], the IC50 was determined as 3.9 µM and the inhibition result was “Dose-dependent effect”.
On to `COc1ccc(/C=C/c2cc(OC)cc(OC)c2/C=C/C(=O)/C=C/c2cccc(OC)c2OC)cc1`, for which the inhibition entry in the data set with RAW264.7 [2], in the data set with Peritoneal macrophage [10], with Peritoneal macrophage [12], with Peritoneal macrophage [16], in the data set with RAW264.7 [3] and with Peritoneal macrophage [18] was “Active” throughout. The outcome in the data set on Mus musculus [6], in the data set with Mus musculus [7], with Mus musculus [8], in the data set with Mus musculus [9], in the data set with Mus musculus [11] and with Mus musculus [13] was Active. Further, the outcome in the data set with Mus musculus [14], with Mus musculus [15], in the data set on Mus musculus [17] and in the data set with Mus musculus [19] was Active. The Stability result in [4] is listed as “Stable”. For the same compound, the Activity result in [1] is recorded as “Non-Toxic”. In the data set on RAW264.7 [5], the IC50 came out at 2.48 µM. Besides, the inhibition result in the data set on RAW264.7 [5] was “Dose-dependent effect”.
As to `COc1ccc(/C=C/c2cc(OC)cc(OC)c2/C=C/C(=O)/C=C/c2ccc3c(c2OC)OCO3)cc1`, in data set [1], the Activity result is “Non-Toxic”.
Consider `COc1ccc(/C=C/c2cc(OC)cc(OC)c2/C=C/C(=O)/C=C/c2ccc(C)cc2C)cc1`, for which the Activity entry in data set [1] is reported as “Non-Toxic”.

A word on the IC50: it is the concentration that inhibits the measured activity by half.
